Reference: patent publication US20220016277A1, “MACROCYCLIC COMPLEXES OF RADIONUCLIDES AND THEIR USE IN RADIOTHERAPY OF CANCER” (Cornell University, priority 2018, published 2022)

Test: Organ distribution of ^225Ac complexes following intravenous injection in mice
Assay type: in vivo, C57BL/6 mice
Procedure: In Vivo Biodistribution of ^225Ac Complexes of Macropa and DOTA. All experiments were approved by the Institutional Animal Care Committee (IACC) of the University of British Columbia and were performed in accordance with the Canadian Council on Animal Care Guidelines. A total of 9 female C57BL/6 mice (6-8 weeks old, 20-25 g) were used for the biodistribution study of each radiometal complex, n=3 for each time point.
Macropa (100 μL of a 1 mg/mL solution in NH4OAc) was diluted with 387 μL of NH4OAc (1 M, pH 7), and an aliquot (203 μL) of ^225Ac(NO3)3 (˜157 kBq) was then added; the pH of this solution was adjusted to 6.5-7 by the addition of 1 M NaOH (210 μL, trace metal grade). After 5 min at ambient temperature, the reaction solution was analyzed by TLC (0.4 M pH 4 sodium citrate as the eluent), which confirmed >95% radiochemical yield. The reaction was allowed to proceed overnight, and the radiochemical yield was again confirmed to be >95% the following morning. At this time, mice were anesthetized by 2% isoflurane, and approximately 100 μL (10-15 kBq) of the [^225Ac(macropa)]^+ complex were injected into the tail vein of each mouse. After injection, mice were allowed to recover and roam freely in their cages, and were euthanized by CO2 inhalation at 15 min, 1 h, or 5 h (n=3 at each time point) post-injection. Blood was collected by cardiac puncture and placed into an appropriate test tube for scintillation counting. Tissues collected included heart, liver, kidneys, lungs, small intestine, large intestine, brain, bladder, spleen, stomach, pancreas, bone, thyroid, tail, urine, and feces. Tissues were weighed and then counted with a calibrated gamma counter (Packard, Cobra II model 5002) using three energy windows: 60-120 keV (window A), 180-260 keV (window B), and 400-480 keV (window C). Counting was performed both immediately after sacrifice and after 7 days; counts were decay corrected from the time of injection and then converted to the percentage of injected dose (% ID) per gram of tissue (% ID/g). […]
The biodistribution studies of [^225Ac(DOTA)]^− and ^225Ac(NO3)3 were carried out as described above for [^225Ac(macropa)]^+, with the following modifications. [^225Ac(DOTA)^− was prepared by adding ^225Ac(NO3)3 (338 μL, 1.1 MBq) to a solution of DOTA (100 μg, 20 mg/mL in H2O) in NH4OAc (467 μL, 0.15 M, pH 7). The pH of the solution was adjusted to 7 using NH4OAc (150 μL, 1 M, pH 7) and the solution was heated at 85° C. for 45 min. RCY >99% was confirmed by TLC as described above. [^225Ac(DOTA)]^− was diluted with saline to a final concentration of 0.05 MBq/100 μL, and 100 μL were injected into each mouse. ^225Ac(NO3)3 (˜58 μL, 0.4 MBq) was diluted and injected in the same manner as [^225Ac(DOTA)]^−. One mouse that was to be euthanized at the 5 h time point in the [^225Ac(DOTA)]^− study died shortly after injection. In the same manner, one mouse that was to be euthanized at the 1 h time point in the ^225Ac(NO3)3 study died.
The in vivo stability [^225Ac(macropa)]^+ was examined by comparing its biodistribution to those of ^225Ac(NO3)3 and [^225Ac(DOTA)]^−. C57BL/6 mice were injected via tail vein with 10-50 kBq of each radiometal complex and were sacrificed after 15 min, 1 h, or 5 h. The amount of ^225Ac retained in each organ was quantified by gamma counting and reported as the percent of injected dose per gram of tissue (% ID/g). The results of these studies are compiled in Tables 1-3. Inadequate stability of an ^225Ac complex leading to the loss of radioisotope in vivo is manifested by the accumulation of ^225Ac in the liver, spleen, and bone of mice.^[11,12,32] […] The biodistribution profile of [^225Ac(macropa)]^+ (FIG. 3B) differs markedly from that of ^225Ac(NO3)3. […] Its biodistribution profile was similar to that of [^225Ac(DOTA)]^− (FIG. 3C), which has been previously shown to retain ^225Ac^3+ in vivo.^[7]

[1] = 15 min post i.v. injection, energy window A (60-120 keV)
[2] = 15 min post i.v. injection, energy window B (180-260 keV)
[3] = 15 min post i.v. injection, energy window C (400-480 keV)
[4] = 1 h post i.v. injection, energy window A (60-120 keV)
[5] = 1 h post i.v. injection, energy window B (180-260 keV)

O=[N+]([O-])[O-].O=[N+]([O-])[O-].O=[N+]([O-])[O-].[225Ac] [^225Ac(NO3)3]
Organ distribution: bladder [1]: 1.477 % ID/g | Organ distribution: blood [1]: 40.966 % ID/g | Organ distribution: bone (femur + joint) [1]: 2.764 % ID/g | Organ distribution: brain [1]: 0.614 % ID/g | Organ distribution: feces [1]: 0.240 % ID/g | Organ distribution: heart [1]: 8.557 % ID/g | Organ distribution: kidneys [1]: 10.468 % ID/g | Organ distribution: large intestines [1]: 1.116 % ID/g | Organ distribution: liver [1]: 22.899 % ID/g | Organ distribution: lungs [1]: 12.757 % ID/g | Organ distribution: pancreas [1]: 2.366 % ID/g | Organ distribution: small intestines [1]: 2.002 % ID/g | Organ distribution: spleen [1]: 22.733 % ID/g | Organ distribution: stomach [1]: 2.348 % ID/g | Organ distribution: tail [1]: 7.459 % ID/g | Organ distribution: thyroids [1]: 4.391 % ID/g | Organ distribution: urine [1]: 5.527 % ID/g | Organ distribution: bladder [2]: 1.6996 % ID/g | Organ distribution: blood [2]: 41.5628 % ID/g | Organ distribution: bone (femur + joint) [2]: 2.7487 % ID/g | Organ distribution: brain [2]: 0.6536 % ID/g | Organ distribution: feces [2]: 0.3857 % ID/g | Organ distribution: heart [2]: 8.3605 % ID/g | Organ distribution: kidneys [2]: 9.6424 % ID/g | Organ distribution: large intestines [2]: 1.1570 % ID/g | Organ distribution: liver [2]: 23.6091 % ID/g | Organ distribution: lungs [2]: 12.9714 % ID/g | Organ distribution: pancreas [2]: 2.2821 % ID/g | Organ distribution: small intestines [2]: 1.9641 % ID/g | Organ distribution: spleen [2]: 24.0497 % ID/g | Organ distribution: stomach [2]: 2.3704 % ID/g | Organ distribution: tail [2]: 8.0722 % ID/g | Organ distribution: thyroids [2]: 9.6295 % ID/g | Organ distribution: urine [2]: 5.0951 % ID/g | Organ distribution: bladder [3]: 1.9351 % ID/g | Organ distribution: blood [3]: 42.3521 % ID/g | Organ distribution: bone (femur + joint) [3]: 3.4560 % ID/g | Organ distribution: brain [3]: 0.6755 % ID/g | Organ distribution: feces [3]: 0.4896 % ID/g | Organ distribution: heart [3]: 9.0992 % ID/g | Organ distribution: kidneys [3]: 14.2266 % ID/g | Organ distribution: large intestines [3]: 1.5716 % ID/g | Organ distribution: liver [3]: 24.1147 % ID/g | Organ distribution: lungs [3]: 14.4797 % ID/g | Organ distribution: pancreas [3]: 2.4405 % ID/g | Organ distribution: small intestines [3]: 2.0956 % ID/g | Organ distribution: spleen [3]: 25.4263 % ID/g | Organ distribution: stomach [3]: 2.4232 % ID/g | Organ distribution: tail [3]: 9.1381 % ID/g | Organ distribution: thyroids [3]: 3.5934 % ID/g | Organ distribution: urine [3]: 19.8282 % ID/g | Organ distribution: bladder [4]: 0.9047 % ID/g | Organ distribution: blood [4]: 20.8234 % ID/g | Organ distribution: bone (femur + joint) [4]: 2.4707 % ID/g | Organ distribution: brain [4]: 0.2995 % ID/g | Organ distribution: feces [4]: 0.2189 % ID/g | Organ distribution: heart [4]: 4.4261 % ID/g | Organ distribution: kidneys [4]: 7.2170 % ID/g | Organ distribution: large intestines [4]: 0.6035 % ID/g | Organ distribution: liver [4]: 39.8269 % ID/g | Organ distribution: lungs [4]: 8.2412 % ID/g | Organ distribution: pancreas [4]: 2.1771 % ID/g | Organ distribution: small intestines [4]: 1.5594 % ID/g | Organ distribution: spleen [4]: 34.8831 % ID/g | Organ distribution: stomach [4]: 1.6211 % ID/g | Organ distribution: tail [4]: 5.7939 % ID/g | Organ distribution: thyroids [4]: 2.5988 % ID/g | Organ distribution: urine [4]: 4.5194 % ID/g | Organ distribution: bladder [5]: 0.8092 % ID/g | Organ distribution: blood [5]: 21.4460 % ID/g | Organ distribution: bone (femur + joint) [5]: 2.7705 % ID/g | Organ distribution: brain [5]: 0.3247 % ID/g | Organ distribution: feces [5]: 0.3300 % ID/g | Organ distribution: heart [5]: 4.5832 % ID/g | Organ distribution: kidneys [5]: 6.8770 % ID/g | Organ distribution: large intestines [5]: 0.5629 % ID/g | Organ distribution: liver [5]: 41.0995 % ID/g
